Data reported in US4316839A, “Imidazodiazepine derivatives” (Hoffman-La Roche Inc., priority 1979, dated 1982).

How the values were obtained:
[1] = target: specific benzodiazepine receptors in the cerebral cortex; test: inhibition of the binding of tritiated diazepam at the specific benzodiazepine receptors in the cerebral cortex
Procedure: The affinity of compounds of formula I to the central benzodiazepine receptors was determined according to the method described in Life Science 20, 2101-2110 (1977) and Science 198, 849-851 (1977). According to this method, the inhibition of the binding of tritiated diazepam at the specific benzodiazepine receptors in the cerebral cortex by test substances is ascertained. The IC50 ("50% inhibiting concentration") is that concentration of the test substance which brings about a 50 percent inhibition of the specific binding of the tritiated diazepam at the specific benzodiazepine receptors in the cerebral cortex.
(§1) In the following Table there are compiled the results which have been obtained with representative compounds of formula I. The ED50 value is given for each compound listed in the Table. The ED50 is the amount of the test compound in mg/kg (p.o.) which counteracts in 50% of the animals the diazepam effect in the foregoing test. Moreover, the Table contains the IC50 value (defined hereinbefore) for all test compounds listed therein as well as details concerning the acute toxicity of certain compounds (LD50 in mg/kg following single oral administration to mice).

[2] = system: diazepam effect in the pentetrazole test; test: pentetrazole test: antagonism of the diazepam effect in mice; assay type: in vivo; details: Mus musculus, po; mice; diazepam 5 mg/kg i.p. 1 hour and test compound 15 min before pentetrazole 120 mg/kg i.p.
Procedure: This property was used as a basis for the test described hereinafter which permits the determination of compounds which are capable of antagonising the central properties of 1,4-benzodiazepines which have tranquillising activity.
The antagonistic activity of the compounds tested, i.e. their ability to counteract the activity of diazepam in the pentetrazole test, is determined by counting the mice which suffer spasmodic seizures in this test.
as §1

[3] = compounds of formula I with A = group (a)
[4] = thieno derivatives, A = group (b)

Compound	IC50 [1, 3] [µM]	ED50 [2] [mg/kg]	IC50 [1, 4] [µM]
CCOC(=O)c1ncn2c1C1C=CCN1C(=O)c1ccccc1-2 (racemic) [Example 43, ethyl (R,S)-11,13a-dihydro-9-oxo-9H-imidazo[1,5-a]pyrrolo[2,1-c][1,4]benzodiazepine-1-carboxylate]	2.3	3.9	–
COC(=O)c1ncn2c1CN(C)C(=O)c1cc(F)ccc1-2 [Example 3, methyl 8-fluoro-5,6-dihydro-5-methyl-6-oxo-4H-imidazo[1,5-a][1,4]benzodiazepine-3-carboxylate]	6	4.9	–
CCOC(=O)c1ncn2c1CN(C)C(=S)c1cc(F)ccc1-2 [Example 6, ethyl 8-fluoro-5,6-dihydro-5-methyl-6-thioxo-4H-imidazo[1,5-a][1,4]benzodiazepine-3-carboxylate]	2.5	6.3	–
CN1Cc2c(C#N)ncn2-c2ccc(F)cc2C1=O [Example 7, 8-fluoro-5,6-dihydro-5-methyl-6-oxo-4H-imidazo[1,5-a][1,4]benzodiazepine-3-carbonitrile]	93	4.2	–
CCOC(=O)c1ncn2c1[C@@H]1CCCN1C(=O)c1cc(F)ccc1-2 [Example 12, ethyl (S)-7-fluoro-11,12,13,13a-tetrahydro-9-oxo-9H-imidazo[1,5-a]pyrrolo[2,1-c][1,4]benzodiazepine-1-carboxylate]	6	8.9	–
CCOC(=O)c1ncn2c1CN(C)C(=O)c1c(Cl)cccc1-2 [Example 13, ethyl 7-chloro-5,6-dihydro-5-methyl-6-oxo-4H-imidazo[1,5-a][1,4]benzodiazepine-3-carboxylate]	3	0.48	–
COC(=O)c1ncn2c1CN(C)C(=O)c1ccccc1-2 [Example 24, methyl 5,6-dihydro-5-methyl-6-oxo-4H-imidazo[1,5-a][1,4]benzodiazepine-3-carboxylate]	9	13.5	–
CC(C)OC(=O)c1ncn2c1CN(C)C(=O)c1ccccc1-2 [Example 25, isopropyl 5,6-dihydro-5-methyl-6-oxo-4H-imidazo[1,5-a][1,4]benzodiazepine 3-carboxylate]	12	7	–
CCOC(=O)c1ncn2c1CN(C)C(=S)c1ccccc1-2 [Example 27, ethyl 5,6-dihydro-5-methyl-6-thioxo-4H-imidazo[1,5-a][1,4]benzodiazepine-3-carboxylate]	6	8.9	–
CCOC(=O)c1ncn2c1CN(C)C(=O)c1c(C)cccc1-2 [Example 28, ethyl 5,6-dihydro-5,7-dimethyl-6-oxo-4H-imidazo[1,5-a][1,4]benzodiazepine-3-carboxylate]	5	7.1	–
CCOC(=O)c1ncn2c1[C@@H]1CCCN1C(=O)c1c(C)cccc1-2 [Example 29, ethyl (S)-11,12,13,13a-tetrahydro-8-methyl-9-oxo-9H-imidazo[1,5-a]pyrrolo[2,1-c]benzodiazepine-1-carboxylate]	5	6.5	–
CC(C)OC(=O)c1ncn2c1[C@@H]1CCCN1C(=O)c1ccccc1-2 [Example 33, isopropyl (S)-11,12,13,13a-tetrahydro-9-oxo-9H-imidazo[1,5-a]pyrrolo[2,1-c][1,4]benzodiazepine-1-carboxylate]	3	18.6	–
CCOC(=O)c1ncn2c1[C@@H]1CCCN1C(=O)c1sccc1-2 [Example 34, ethyl (S)-10,11,12,12a-tetrahydro-8-oxo-8H-imidazo[5,1-c]pyrrolo[1,2-a]thieno[3,2-e][1,4]diazepine-1-carboxylate]	–	1.3	0.0009
COC(=O)c1ncn2c1[C@@H]1CCCN1C(=O)c1sccc1-2 [Example 35, methyl (S)-10,11,12,12a-tetrahydro-8-oxo-8H-imidazo[5,1-c]pyrrolo[1,2-a]thieno[3,2-e][1,4]diazepine-1-carboxylate]	–	0.22	0.0021
